Measured values as given in patent publication US6602517B2, “Dietary supplements for treating inflammation-related diseases” (Metagenics, Inc., priority 1999, dated 2003).

Test: ORAC assay (inhibition of peroxyl-radical quenching of β-phycoerythrin fluorescence)
Assay type: biochemical
Conditions: for AUC/μg mean: pure samples (100% by weight); for ORAC units (U): pure samples, normalized to Trolox on a weight basis
Description: Method: In order to determine the antioxidant capacity of the subject phytonutrients, the ORAC assay (Cao, G et al., Free Rad. Biol. Med. 14: 303-311[…]) was utilized. This simple procedure relies on the fact that peroxyl radicals will quench the fluorescence of β-phycoerythrin (β-PE) The addition of an antioxidant capable of scavenging these radicals is able to inhibit fluorescence quenching. Fluorescence is monitored as a function of time and the extent of quenching and its inhibition can be determined by calculating the area under the curve (AUC).
A typical reaction will contain 1.67×10^−8 M β-PE in phosphate buffer and 3×10^−3 M 2,2′-azobis(2-amidinopropane)dihydochloride (AAPH) as well as test material. The reaction is initiated by the addition of the peroxyl-radical generating reagent AAPH. […] The difference, or net protection, is equal to AUCsample−AUCblank, and represents the antioxidant capacity of the sample. […] Where one ORAC unit (U) is defined as the net protection provided by 1 nmol/ml Trolox (i.e., 1 μM). […] The final results are normalized to Trolox on a weight basis.
units=(AUC/μg)test/(AUC/μg)trolox.
To generate the data set forth in the present example, samples were prepared in acetonitrile, sometimes with the aid of sonication to facilitate dissolution. One to five μl of sample was added to each 3 ml cuvette, the reaction initiated with AAPH and fluorescence monitored until the quenching was complete. The predicted value for the mixtures was calculated by using the following equation: […]

SMILES | AUC/μg mean | ORAC units (U)
Cc1c(C)c2c(c(C)c1O)CCC(C)(C(=O)O)O2 (centres unmarked) [Trolox, reference compound] | 8.9 AUC/μg | 1.00 U
COc1cc(/C=C/C(=O)CC(=O)/C=C/c2ccc(O)c(OC)c2)ccc1O [curcumin] | 15.93 AUC/μg | –
O=c1c(O)c(-c2ccc(O)c(O)c2)oc2cc(O)cc(O)c12 [quercetin] | 14.45 AUC/μg | 1.62 U
